Experimental findings from patent US12187722B2, “Small molecule inhibitors of TEAD transcription factors” (The General Hospital Corporation, priority 2019, dated 2025) are described below.

The target in this test is TEAD2 (Homo sapiens (Human), UniProt Q15562). Briefly: In vitro palmitoylation (TEAD2 autopalmitoylation, streptavidin blot). Particulars: compound at 10 μM. Type of test: biochemical. A digest of the protocol:
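Autopalmitoylation read by streptavidin-HRP Western blot after CuSO4/TBTA/TCEP click with 100 μM biotin-azide, 1 h RT, with His-HRP probed separately. Before that, TEAD2 protein (GST or His6, 500 ng) given compound for 15 min then 1 μM alkyne palmitoyl-CoA for 30 min; percent inhibition versus DMSO-treated samples.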

Each structure is given as a SMILES string. Where “and” joins values, the source holds several entries; their conditions need not be identical. Equal values may be shown once.

Sequence of TEAD2 (Q15562 whole entry): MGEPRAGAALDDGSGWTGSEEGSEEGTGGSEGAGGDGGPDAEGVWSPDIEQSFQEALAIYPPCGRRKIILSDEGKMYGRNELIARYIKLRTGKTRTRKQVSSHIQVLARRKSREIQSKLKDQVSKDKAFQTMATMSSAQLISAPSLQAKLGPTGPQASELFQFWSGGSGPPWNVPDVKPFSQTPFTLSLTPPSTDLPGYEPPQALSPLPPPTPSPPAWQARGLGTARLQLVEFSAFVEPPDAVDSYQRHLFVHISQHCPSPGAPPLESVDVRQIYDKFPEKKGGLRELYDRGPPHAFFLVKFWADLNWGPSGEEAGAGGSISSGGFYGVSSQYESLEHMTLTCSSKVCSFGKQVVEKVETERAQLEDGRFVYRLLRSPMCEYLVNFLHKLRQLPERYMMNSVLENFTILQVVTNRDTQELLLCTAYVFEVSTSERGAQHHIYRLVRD

With `COc1ccc(Nc2cccc(C(=O)Nc3ccc(C4CCCCC4)cc3Cl)c2)c(C(=O)O)c1` [CP-669], the inhibition at 10 µM (Table 3) was determined as 75%.
Take `CC(C)c1ccccc1-c1ccc(NC(=O)C2CN(CC(=O)O)C2)cc1` [Compound 87]: under “Table 2”, the inhibition at 10 µM amounted to 4%.
For `COc1ccc(Nc2ccc(Nc3ccc(C45CC6CC(CC(C6)C4)C5)cc3Cl)cc2)nc1C(=O)O` [CP-650], the inhibition at 10 µM (Table 3) stood at 93%.
On to `O=C(O)c1ccccc1Nc1ncc(Nc2ccc(C34CC5CC(CC(C5)C3)C4)cc2Cl)cn1` [compound 284], for which, under “Table 2”, the inhibition at 10 µM worked out at 14%.
Turning to `O=C(NCc1ccc(C23CC4CC(CC(C4)C2)C3)cc1)c1ccc(Nc2ccccc2C(=O)O)cc1` [Compound 267], the inhibition at 10 µM (Table 2) stood at 36%.
On to `COc1ccccc1-c1ccc(Nc2ccc(Nc3ccccc3C(=O)O)cc2)c(Cl)c1` [Compound 56], for which the inhibition at 10 µM (Table 2) is 0%.
On to `CN(c1cccc(Nc2ccc(C34CC5CC(CC(C5)C3)C4)cc2Cl)c1)c1ncccc1C(=O)O` [Compound 135], for which, for the setting “Table 2”, the inhibition at 10 µM came out at 100%.
For `CC12CC3CC(C)(C1)CC(c1ccc(NC(=O)c4cccc(Nc5ccccc5C(=O)O)c4)cc1)(C3)C2` [Compound 222], the inhibition at 10 µM (Table 2) is 45%.
In the case of `O=C(O)c1cncc(Nc2cc(C(F)(F)F)cc3[nH]c4ccc(C56CC7CC(CC(C7)C5)C6)cc4c23)c1` [Compound 151], the inhibition at 10 µM (Table 2) was 101%.
`O=C(O)c1cccnc1CN1CCCC(Nc2ccc(C34CC5CC(CC(C5)C3)C4)cc2Cl)C1` (stereo not drawn) [Compound 141]: where the note is “Table 2”, the inhibition at 10 µM stood at 95%.
Take `CC(C)c1ccccc1-c1ccc(NC(=O)c2ccc(Nc3ccccc3C(=O)O)cc2)cc1` [Compound 211]: the inhibition at 10 µM (Table 2) was 67%.
Same read-out and setting: next, `Cc1ccc(Nc2cc(Nc3ccc(C45CC6CC(CC(C6)C4)C5)cc3)cc(C(F)(F)F)c2)c(C(=O)O)c1` [Compound 28]: 10%.
With `CC(C)c1ccccc1-c1ccc(NC(=O)CC2CN(C(=O)OC(C)(C)C)C2)cc1`, the inhibition at 10 µM came out at 100%.
`COc1ccc(Nc2ccc(N(C)c3ccc(C4CCC(C(F)(F)F)CC4)cc3)cc2)c(C(=O)O)c1` (stereo not drawn) [CP-603]: the inhibition at 10 µM (Table 3) is 83%.
As for `Cc1ccccc1-c1cc(Cl)c(Nc2ccc(Nc3ccccc3C(=O)O)cc2)cc1C` [Compound 61], the inhibition at 10 µM (Table 2) stood at 70%.
For `O=C(O)[C@H]1CCCN1C(=O)Nc1ccc(Nc2ccc(C34CC5CC(CC(C5)C3)C4)cc2Cl)cc1` [Compound 52], the inhibition at 10 µM (Table 2) stood at 79%.
In the case of `O=C(Nc1ncccc1C(=O)O)c1ccc(Nc2ccc(C34CC5CC(CC(C5)C3)C4)cc2)cc1` [Compound 217], the inhibition at 10 µM (Table 2) was 55%.
Take `O=C(O)c1cccc(Nc2ccc(C(=O)Nc3ccc(C45CC6CC(CC(C6)C4)C5)cc3)cc2)c1` [Compound 185]: the “% of inhibition of TEAD2 palmitoylation at 10 μM” value (Table 2) is 66% and 91%.
In the case of `O=C(O)c1ccccc1Nc1cc(Nc2ccc(C34CC5CC(CC(C5)C3)C4)cc2Cl)cc(C(F)(F)F)c1` [Compound 33], the inhibition at 10 µM (Table 2) came out at 50%.
In the case of `O=C(O)c1cc(Nc2ccc(Nc3ccc(C45CC6CC(CC(C6)C4)C5)cc3Cl)cc2)ccn1` [Compound 117], the inhibition at 10 µM (Table 2) came out at 9%.
With `Cc1cc(N(C)c2ccc(C3CCCCC3)cc2Cl)ccc1Nc1cccc(C(=O)O)n1` [CP-681], where the note is “Table 3”, the inhibition at 10 µM turned out to be 8%.
Turning to `CN(c1ccc(C(=O)Nc2ccc(C34CC5CC(CC(C5)C3)C4)cc2)cc1)c1ncccc1C(=O)O` [Compound 147], the inhibition at 10 µM (Table 2) amounted to 70%.
For `CNC(=O)c1ccc(Nc2ccc(N(C)c3ccc(C4CCCCC4)cc3)cc2C)c(C(=O)O)c1` [CP-632], the inhibition at 10 µM (Table 3) turned out to be 73%.
`CCCCN(c1ccccc1)c1ccc(Nc2ccc(Nc3cccc(C(=O)O)n3)cc2)cc1` [Compound 202]: the inhibition at 10 µM (Table 2) came out at 49%.
On to `CN(c1ccc(C23CC4CC(CC(C4)C2)C3)cc1)c1ccc(N(C)c2ncccc2C(=O)O)cc1C(F)(F)F` [Compound 156], for which, under “Table 2”, the inhibition at 10 µM came out at 92%.
With `CC(C)N(c1ccc(N(C)c2ccc(C34CC5CC(CC(C5)C3)C4)cc2)cc1)c1ccccc1C(=O)O` [Compound 226], the inhibition at 10 µM (Table 2) is 17%.
On to `CN(C)CCOc1ccc(Nc2ccc(N(C)c3ccc(C45CC6CC(CC(C6)C4)C5)cc3)cc2)c(C(=O)O)c1` [CP-526], for which the inhibition at 10 µM (Table 3) stood at 23%.
Turning to `CCCCN(CCCC)Cc1ccc(Nc2ccc(Nc3ccccc3C(=O)O)cc2)cc1` [Compound 169], for the setting “Table 2”, the inhibition at 10 µM was 42%.
In the case of `COc1ccc(Nc2ccc(Oc3ccc(C(F)(F)F)cc3Cl)cc2)c(C(=O)O)c1` [CP-544], the inhibition at 10 µM (Table 3) came out at 98%.
`O=C(O)c1cccc(NC(=O)c2ccc(Nc3ccc(C45CC6CC(CC(C6)C4)C5)cc3)cc2)c1` [Compound 198]: the inhibition at 10 µM (Table 2) amounted to 99%.
For the compound `COc1ccc(Nc2cc(Nc3ccc(C4CCCCC4)cc3Cl)cc(C(F)(F)F)c2)nc1C(=O)O` [CP-675], the inhibition at 10 µM (Table 3) was 83%.
On to `CC(C)(C)OC(=O)N(c1ccc(Nc2ccc(C34CC5CC(CC(C5)C3)C4)cc2Cl)cn1)c1ccccc1C(=O)O` [Compound 76], for which, where the note is “Table 2”, the inhibition at 10 µM was determined as 34%.
As to `COc1ccc(Nc2cccc(C(=O)Nc3ccc(C(F)(F)F)cc3)c2)c(C(=O)O)c1` [CP-586], the inhibition at 10 µM (Table 3) was 40%.
Turning to `O=C(O)c1cccc(Nc2cc(Nc3ccc(C4CCCCC4)cc3)cc(C(F)(F)F)c2)c1` [CP-662], the inhibition at 10 µM (Table 3) turned out to be 88%.
Take `O=C(O)c1cncn1Cc1cccc(Nc2ccc(C34CC5CC(CC(C5)C3)C4)cc2Cl)c1` [Compound 128]: the inhibition at 10 µM (Table 2) was 92%.
Turning to `COc1ccc(Oc2ccc(N(C)c3ccc(C(F)(F)F)cc3)cc2)c(C(=O)O)c1` [CP-587], the inhibition at 10 µM (Table 3) stood at 36%.
Turning to `CC12CC3CC(C)(C1)CC(c1ccc(NC(=O)c4ccc(Nc5ccccc5C(=O)O)cc4)cc1)(C3)C2` [Compound 216], the inhibition at 10 µM (Table 2) was 89%.
In the case of `CN(c1ccc(C2CCCCC2)cc1)c1cc(C2CC2)c(Nc2cccc(C(=O)O)n2)cn1` [CP-663], for the setting “Table 3”, the inhibition at 10 µM amounted to 45%.
On to `Clc1cc(C23CC4CC(CC(C4)C2)C3)ccc1Nc1ccc(Nc2ccccc2-c2nnn[nH]2)cc1`, for which the inhibition at 10 µM was found to be 20%.
With `CN(c1cnc(Nc2ccc(C34CC5CC(CC(C5)C3)C4)cc2Cl)cn1)c1ccccc1C(=O)O` [Compound 144], for the setting “Table 2”, the inhibition at 10 µM came out at 100%.
Take `O=C(O)c1ccccc1Nc1cnc(Nc2ccc(C34CC5CC(CC(C5)C3)C4)cc2Cl)cn1` [compound 283]: the inhibition at 10 µM (Table 2) turned out to be 99%.
The same measure, in the same setting: as for `CN(c1ccc(Nc2ccc(C34CC5CC(CC(C5)C3)C4)cc2)cc1)c1ccccc1C(=O)O` [Compound 99], the figure is 85%; as for `COc1ccc(Nc2ccc(N(C)c3ccc(C(F)(F)F)cc3)cc2)c(C(=O)N(C)C)c1` [compound 431], 37%.
Still for that read-out and setting: as for `O=C(O)c1cccnc1Nc1ccc(C23CC4CC(CC(C4)C2)C3)cc1Cl` [Compound 60], the figure is 100%; as for `CC1(C)OC(C(=O)O)C(C(=O)Nc2ccc(Nc3ccc(C45CC6CC(CC(C6)C4)C5)cc3Cl)cc2)O1` (stereo not drawn) [Compound 102], 77%.
On to `O=C(O)c1cnn(Cc2ccc(Nc3ccc(C45CC6CC(CC(C6)C4)C5)cc3Cl)cc2)c1` [Compound 121], for which the inhibition at 10 µM (Table 2) was determined as 80%.
In the case of `COc1ccc(Nc2cnc(N(C)c3ccc(C4CCCCC4)cc3)cc2C)c(C(=O)O)c1` [CP-609], for the setting “Table 3”, the inhibition at 10 µM was 54%.
On to `COCCC(=O)Nc1ccc(C(=O)O)c(Nc2ccc(N(C)c3ccc(C45CC6CC(CC(C6)C4)C5)cc3)cc2)c1` [CP-473], for which the inhibition at 10 µM (Table 3) amounted to 50%.
Regarding `O=C(O)C1CCCC1Nc1ccc(C23CC4CC(CC(C4)C2)C3)cc1` (stereo not drawn) [Compound 65], the inhibition at 10 µM (Table 2) is 74%.
On to `COc1ccc(Nc2ccc(Oc3ccc(C4CCCCC4)cc3Cl)nc2)c(C(=O)O)c1` [CP-591], for which, where the note is “Table 3”, the inhibition at 10 µM turned out to be 88%.
Regarding `O=C(O)c1cccnc1Nc1ncn(Cc2ccc(C34CC5CC(CC(C5)C3)C4)cc2Cl)n1` [Compound 129], the inhibition at 10 µM (Table 2) is 41%.
Still for that read-out and setting: next, `O=C(O)c1cccnc1Nc1cccc(Nc2cccc(C34CC5CC(CC(C5)C3)C4)c2)c1` [Compound 111]: 80%.
`COc1ccc(Nc2ccc(Oc3ccc(C(F)F)cc3Cl)cc2)c(C(=O)O)c1` [CP-575]: the inhibition at 10 µM (Table 3) was 47%.
For `CC(C)c1ccccc1-c1ccc(Nc2ccc(Nc3ccccc3C(=O)O)cc2)c(Cl)c1` [Compound 41], the inhibition at 10 µM (Table 2) was 52%.
Consider `COc1ccc(Nc2cnc(Oc3ccc(C4CCCCC4)cc3Cl)nc2)c(C(=O)O)c1` [CP-616], for which, where the note is “Table 3”, the inhibition at 10 µM amounted to 73%.
As to `COc1ccc(Nc2ccc(N(C)c3ccc(C4CCN(C)CC4)cc3)cc2)c(C(=O)O)c1` [CP-582], the inhibition at 10 µM (Table 3) was determined as 0%.
For the compound `CN(c1ccc(Nc2cccc(C(=O)NC34CC5CC(CC(C5)C3)C4)c2)cc1)c1ccccc1C(=O)O` [Compound 232], the inhibition at 10 µM (Table 2) turned out to be 33%.
As to `O=C(O)c1cccc(NC(=O)c2ccc(Nc3ccc(C4CCCCC4)cc3)cc2)c1` [CP-638], the inhibition at 10 µM (Table 3) is 67%.
Take `NC(Cc1ccc(Nc2ccc(C34CC5CC(CC(C5)C3)C4)cc2Cl)cc1)C(=O)O` (stereo not drawn) [Compound 95]: the inhibition at 10 µM (Table 2) was determined as 97%.
For the compound `CCOC(=O)/C=C/c1ccccc1Nc1ccc(Nc2ccc(C34CC5CC(CC(C5)C3)C4)cc2)cc1` [Compound 14], under “Table 2”, the inhibition at 10 µM was 0%.
On to `CC12CC3CC(C)(C1)CC(c1ccc(NC(=O)c4cccc(Nc5ncccc5C(=O)O)c4)c(Cl)c1)(C3)C2` [Compound 262], for which, where the note is “Table 2”, the inhibition at 10 µM is 85%.
As to `O=C(O)Cn1cnc2cc(Nc3ccc(C45CC6CC(CC(C6)C4)C5)cc3Cl)ccc21` [Compound 108], the inhibition at 10 µM (Table 2) is 86%.
For `COc1ccc(Nc2ccc(N(C)c3ccc(N4CCOCC4)cc3)cc2)c(C(=O)O)c1` [CP-547], for the setting “Table 3”, the inhibition at 10 µM amounted to 18%.
On to `COc1ccc(Nc2ccc(N(C)c3ccc(C4CCC(F)(F)CC4)cc3)cc2)c(C(=O)O)c1` [CP-552], for which, for the setting “Table 3”, the inhibition at 10 µM came to 74%.
As for `O=C(O)c1cccnc1CN1CCC(Nc2ccc(C34CC5CC(CC(C5)C3)C4)cc2Cl)C1` (stereo not drawn) [Compound 137], the inhibition at 10 µM (Table 2) was determined as 99%.
As for `COc1ccc(Nc2ccc(N(C)c3cc(C(F)(F)F)nn3C)cc2)c(C(=O)O)c1` [CP-624], the inhibition at 10 µM (Table 3) was 15%.
